Reference: US10105384B2, “Nucleic acids targeting TCTP for use in the treatment of chemo- or hormone-resistant cancers” (INSTITUT NATIONAL DE LA SANTE ET DE LA RECHERCHE MEDICALE …, priority 2010, dated 2018)
d = 2'-deoxy (DNA); r = 2'-OH (RNA)

Experiments:
LNCaP cells = experiment: Crystal violet cell growth assay, LNCaP cells; format: cell-based, human
Method: (§1) In brief, cells were seeded in each well of 12-well microtiter plates (30 000 to 50 000 cells per well) and allowed to attach overnight. To study the effect of TCTP downregulation on apoptosis induced by docetaxel, PC-3 cells were transiently transfected the day after seeding with 5 nM of TCTP siRNA for 48 h or 100 nM of TCTP ASO for 72 h. Cells were then treated with 50 nM of docetaxel and MTT assays were performed after 24 h. To assess the effect of TCTP downregulation on Hsp27 cytoprotection, LNCaP-Mock and -Hsp27 cells were transiently transfected the day after seeding with 5 nM of TCTP siRNA for 48 h. The down- or upregulation of TCTP effect on LNCaP and C4-2 cell viability was realized after transient transfections with 100 nM of TCTP ASO or 0.02 μg/μl of pDEST-TCTP for 72 h and 48 h respectively. Cells were then treated with 1 nM of docetaxel in serum-free media (mimics androgen withdrawal in vitro) and crystal violet assays were performed the day after. Each assay was performed in triplicate.
(§2) Finally, in order to assess if TCTP ASO has the same effect on prostatic cancer cell lines expressing the androgen receptor (AR), crystal violet dye was used to examin LNCaP and C4-2 cell growth. LNCaP and C4-2 were treated with 100 nM TCTP or control ASO (FIGS. 15 A and B) for 2 days. Then, LNCaP and C4-2 cells were incubated with 1 nM of docetaxel in serum-free media.

C4-2 cells = experiment: Crystal violet cell growth assay, C4-2 cells; format: cell-based, human
Method: as §1, §2

PC-3 tumors = experiment: PC-3 tumor growth in vivo in athymic nude mice
Method: (§3) Approximately 3.10^6 PC-3 cells and 10.10^6 LNCaP cells were inoculated subcutaneously with 0.1 mL of Dulbecco's Modified Eagle's Medium (Invitrogen) supplemented with 10% FCS for PC-3 or with 0.1 mL of Matrigel (BD Biosciences Discovery Labware) for LNCaP in the flank region of 4-week-old male athymic nude mice (Charles River, L'Arbresle, France) via a 23-gauge needle. When PC-3 tumors reached 50 mm^3, usually 3 to 4 weeks after injection, mice were randomly selected for treatment with TCTP ASO alone, scrambled ASO alone, TCTP ASO plus docetaxel or scrambled ASO plus docetaxel. Mice bearing LNCaP tumors between 200 and 300 mm^3 in volume were castrated via scrotal approach and randomly assigned to a treatment arm. Mice were treated beginning 1 week after castration with TCTP ASO or control ASO alone and serum PSA measurements were done weekly. For both experiments, each experimental group consisted in 10 mice and the tumor volume measurements were performed once weekly and calculated by the formula length×width×depth×0.5236 (Gleave et al., 1999, Clin Cancer Res 5:2891-8). After randomization, 10 mg/kg TCTP or scrambled ASO was injected intraperitoneally (i.p) once daily for 60 days for ASO monotherapy groups and 90 days for the ASO plus docetaxel groups. A total of 35 mg/kg docetaxel was administrated i.p. three times per week from days 7 to 14. Tumor volume measurements were performed once weekly and calculated by the formula length×width×depth×0.5236 (20). Data points were expressed as average tumor volume levels +/−standard error (SE). All animal procedures were performed in accordance with protocols approved by French laws and the European directives and with appropriate institutional certification.
We next evaluated the effects of TCTP ASO treatment on the growth of PC-3 tumors in vivo (FIG. 8). Male nude mice bearing PC-3 tumors (50 mm^3) were randomly selected for TCTP ASO versus scrambled ASO and 10 mg/kg ASO were administrated once daily by i.p. injection for […]. From days 7 to 14, 30 mg/kg of docetaxel was administrated i.p. 3 days in the week. Mean tumor volume was similar in all groups before therapy.
TCTP inhibition was evaluated in nude mice xenografted with the PC3 CRPC cell line. The animals were treated in an everyday basis and for a period of two months by peritoneal injection of ASO or control TCTP once their tumor volume was 200-300 mm^3. In order to evaluate the additive anticancer activity of ASO TCTP, mice were treated with docetaxel (33 mg/kg) by peritoneal injection three times per week for one week prior to ASO or control TCTP injections. For all experiments, the average tumor volume was measured once a week.

LNCaP tumors = experiment: LNCaP tumor growth in vivo after castration in athymic nude mice
Method: as §3
Twenty male mice bearing LNCaP tumors were castrated 6 to 8 weeks after tumor implantation and were randomly selected for treatment with TCTP ASO of SEQ ID NO: 2 versus control ASO. Castration was done when tumors reached a mean of 200 mm3. Mean tumor volume and PSA were similar in both groups at the beginning of the treatment. Beginning 1 week after castration, 10 mg/kg of ASO was administered once daily by i.p. injection for 9 weeks. […] At sacrifice, tumor volume was 4-fold higher in control (1650, 15±281, 76 mm^3) compared with the TCTP ASO-treated group (397, 79±132, 61 mm^3; *, P≤0.05).

LNCaP-Mock cells = experiment: Crystal violet cell growth assay, LNCaP-Mock cells; format: cell-based, human
Method: as §1
In order to study consequences of TCTP inhibition on cell survival after combined androgen withdrawal and docetaxel-chemotherapy treatment, cell viability of LNCaP-Mock and -Hsp27 was determined using crystal violet dye after 24 h treatment with 1 nM of docetaxel in serum-free media (mimics androgen withdrawal in vitro). […]

LNCaP-Hsp27 cells = experiment: Crystal violet cell growth assay, LNCaP-Hsp27 cells; format: cell-based, human
Method: as §1
To study the functional role of TCTP in CRPC, siRNA-induced inhibition of TCTP expression was used to determine whether the reduction of TCTP expression affects LNCaP-Mock and -Hsp27 cell growth after combined androgen withdrawal and docetaxel-chemotherapy treatment in vitro.
In order to study consequences of TCTP inhibition on cell survival after combined androgen withdrawal and docetaxel-chemotherapy treatment, cell viability of LNCaP-Mock and -Hsp27 was determined using crystal violet dye after 24 h treatment with 1 nM of docetaxel in serum-free media (mimics androgen withdrawal in vitro). […] After TCTP siRNA plus docetaxel in serum-free medium treatment (mimics androgen withdrawal in vitro), we found an 80% (**, P≤0.01) reduction in LNCaP-Hsp27 cell growth rate versus a 50% (**, P≤0.01) reduction in LNCaP-Mock compared to control.

[1] = siRNA 5 nM alone, compared with control
[2] = siRNA plus 1 nM docetaxel in serum-free medium, 24 h

Substance	LNCaP cell growth (LNCaP cells; 100 nM ASO for 2 days)	sensitivity to docetaxel and androgen withdrawal (LNCaP cells; LNCaP, 100 nM ASO 2 days then 1 nM docetaxel in serum-free media)	C4-2 cell growth (C4-2 cells; 100 nM ASO for 2 days)	sensitivity to docetaxel and androgen withdrawal (C4-2 cells; C4-2, 100 nM ASO 2 days then 1 nM docetaxel in serum-free media)	tumor volume (PC-3 tumors; PC3 xenografted nude mice, 10th week of treatment)	tumor volume maintained (PC-3 tumors; PC3 xenografted nude mice, docetaxel (33 mg/kg) followed by ASO TCTP)	reduction of mean PC-3 tumor volume (PC-3 tumors; TCTP ASO plus docetaxel vs scrambled control, 13 weeks after initiation of treatment)	harvested tumors smaller in appearance (PC-3 tumors; after two weeks of i.p. treatment)	general toxicity (animal behavior, body weight) (PC-3 tumors; mice bearing PC-3 tumors, body weight t0 vs tf)	reduction of PC-3 tumor volume (PC-3 tumors; monotherapy 10 mg/kg i.p. once daily, days 56 to 70, vs scrambled control)	cleaved caspase-3 fragments in harvested PC-3 tumors (PC-3 tumors; western blotting, i.p. delivery)	LNCaP tumor volume increase compared with control ASO (LNCaP tumors; 9 weeks after castration)	harvested tumors smaller in appearance (LNCaP tumors; after 9 weeks of TCTP ASO monotherapy)	tumor volume in control compared with the TCTP ASO-treated group (LNCaP tumors; at sacrifice)	side effects (animal behavior, body weight) (LNCaP tumors; castrated mice bearing LNCaP tumors, 9 weeks)	reduction in LNCaP-Mock cell growth rate (LNCaP-Mock cells; [1])	reduction in LNCaP-Mock cell growth rate (LNCaP-Mock cells; [2])	cytoprotection to androgen withdrawal and docetaxel conferred by Hsp27 overexpression (LNCaP-Hsp27 cells; siRNA 5 nM)	reduction in LNCaP-Hsp27 cell growth rate (LNCaP-Hsp27 cells; [1])	reduction in LNCaP-Hsp27 cell growth rate (LNCaP-Hsp27 cells; [2])
5′-ACCAATGAGCGAGTCATCAA-3′ (phosphorothioate backbone, further chemistry not given here) [ASO10]	considerably decrease	enhance treatments (docetaxel and androgen withdrawal) sensitivity	considerably decrease	enhance treatments (docetaxel and androgen withdrawal) sensitivity	500 mm^3	100 mm^3	< 70%	50%	did not cause general toxicity	50%	presence of cleaved caspase-3 fragments	increased more slowly	¾	4 fold	No side effects					
5′-AACCCGUCCGCGAUCUCCCdGdG-3′ (AACCCGUCCGCGAUCUCCCGG; siRNA; sugars from the 5' end r19 d2, backbone not given here) [TCTP siRNA, from Qiagen]																40%	50%	reversed the cytoprotection	50%	80%
